Measurements published in patent publication US20240226098A1, “COMPOUNDS AND METHODS FOR MODULATING SPLICING” (REMIX THERAPEUTICS INC., priority 2020, published 2024).

Tests used:
Type in all cases: cell-based
[1] = system: HTT mRNA, alternative junction (AJ); assay: Splicing assay (RT-qPCR): increase in HTT alternative junction (AJ) mRNA; details: A673 or K562 cell line, 24 hours treatment, top dose 10 uM; concentration having 50% response in AJ increase
Description: (§1) Compounds described herein were used to modulate RNA transcript abundance in cells. The expression of a target mRNA was measured by detecting the formation of an exon-exon junction in the canonical transcript (CJ). A compound mediated exon-inclusion event was detected by observing an increase in formation of a new junction with an alternative exon (AJ). Real-time qPCR assays were used to detect these splicing switches and interrogate the potency of various compounds towards different target genes. A high-throughput real time quantitative PCR (RT-qPCR) assay was developed to measure these two isoforms of the mRNA (CJ and AJ) for an exemplary gene, HTT, together with a control housekeeping gene, GAPDH or GUSB or PPIA, used for normalization. Briefly, the A673 or K562 cell line was treated with various compounds described herein (e.g., compounds of Formula (I)). After treatment, the levels of the HTT mRNA targets were determined from each sample of cell lysate by cDNA synthesis followed by qPCR.
(§2) • Cells-to-CT 1-step kit: ThermoFisher A25602, Cells-to-CT lysis reagent: ThermoFisher 4391851C, TaqMan™ Fast Virus 1-Step Master Mix: ThermoFisher 4444436 • GAPDH: VIC-PL, ThermoFisher 4326317E (Assay: Hs99999905_ml)—used for K562/suspension cell lines • GUSB: VIC-PL, ThermoFisher 4326320E (Assay: Hs99999908_ml)—used for K562/suspension cell lines • PPIA: VIC-PL, ThermoFisher 4326316E (Assay: Hs99999904_ml)—used for A673/adherent cell lines
(§3) The A673 cell line was cultured in DMEM with 10% FBS. Cells were diluted with full growth media and plated in a 96-well plate (15,000 cells in 100 ul media per well). The plate was incubated at 37° C. with 5% CO2 for 24 hours to allow cells to adhere. An 11-point 3-fold serial dilution of the compounds was made in DMSO then diluted in media in an intermediate plate. Compounds were transferred from the intermediate plate to the cell plate with the top dose at a final concentration of 10 uM in the well. Final DMSO concentration was kept at or below 0.25%. The cell plate was returned to the incubator at 37° C. with 5% CO2 for an additional 24 hours.
(§4) The K562 cell line was cultured in IMDM with 10% FBS. For K562, cells were diluted with full growth media and plated in either a 96-well plate (50,000 cells in 50 uL media per well) or a 384-well plate (8,000-40,000 cells in 45 uL media per well). An 11-point 3-fold serial dilution of the compounds were made in DMSO then diluted in media in an intermediate plate. Compound was transferred from the intermediate plate to the cell plate with the top dose at a final concentration of 10 uM in the well. Final DMSO concentration was kept at or below 0.25%. Final volume was 100 uL for 96-well plate and 50 uL for 384-well plate. The cell plate was then placed in an incubator at 37° C. with 5% CO2 for 24 hours.
(§5) The cells were then gently washed with 50 uL-100 uL cold PBS before proceeding to addition of lysis buffer. 30 uL-50 uL of room temperature lysis buffer with DNAse I (and optionally RNAsin) was added to each well. Cells were shaken/mixed thoroughly at room temperature for 5-10 minutes for lysis to take place and then 3 uL-5 uL of room temperature stop solution was added and wells were shaken/mixed again. After 2-5 minutes, the cell lysate plate was transferred to ice for RT-qPCR reaction setup. The lysates could also be frozen at −80° C. for later use.
(§6) In some cases, a direct lysis buffer was used. An appropriate volume of 3× lysis buffer (10 mM Tris, 150 mM NaCl, 1.5%-2.5% Igepal and 0.1-1 U/uL RNAsin, pH 7.4) was directly added to either K562 or A673 cells in media and mixed by pipetting 3 times. The plates were then incubated at room temperature with shaking/rocking for 20-50 minutes to allow for lysis to take place. After this time, the cell lysate plate was transferred to ice to set up for the RT-qPCR reactions. The lysates could also be frozen at −80° C. for later use. […]

[2] = system: HTT mRNA, canonical junction (CJ); assay: Splicing assay (RT-qPCR): decrease in HTT canonical junction (CJ) mRNA; details: A673 or K562 cell line, 24 hours treatment, top dose 10 uM; concentration having 50% response in CJ decrease
Description: as §1, §2, §3, §4, §5, §6

HTT CJ mRNA = assay: Gene panel canonical junction qPCR assay: decrease in HTT CJ mRNA; details: protocol as for Table 2, read-out: HTT (IC50, decrease in CJ mRNA levels)
Description: as §1, §3, §4, §5
(§7) In some cases, a direct lysis buffer was used. An appropriate volume of 3× lysis buffer (10 mM Tris, 150 mM NaCl, 1.5%-2.5% Igepal and 0.1-1 U/uL RNAsin, pH 7.4) was directly added to either K562 or A673 cells in media and mixed by pipetting 3 times. The plates were then incubated at room temperature with shaking/rocking for 20-50 minutes to allow for lysis to take place. After this time, the cell lysate plate was transferred to ice to set up for the RT-qPCR reactions. The lysates could also be frozen at −80° C. for later use.
(§8) To set up 10 uL RT-qPCR reactions, cell lysates were transferred to 384-well qPCR plates containing the master mix according to the table below. The plates were sealed, gently vortexed, and spun down before the run. The volumes were adjusted accordingly in some instances where the reaction was carried in 20 uL. The table below summarizes the components of the RT-qPCR reactions:
(§9) The RT-qPCR reaction was performed using a QuantStudio (ThermoFisher) under the following fast cycling conditions. […]

SMN2 CJ mRNA = assay: Gene panel canonical junction qPCR assay: decrease in SMN2 CJ mRNA; details: protocol as for Table 2, read-out: SMN2 (IC50, decrease in CJ mRNA levels)
Description: as §1, §3, §4, §5, §7, §8, §9

Target C CJ mRNA = assay: Gene panel canonical junction qPCR assay: decrease in Target C CJ mRNA; details: protocol as for Table 2, read-out: Target C (IC50, decrease in CJ mRNA levels)
Description: as §1, §3, §4, §5, §7, §8, §9

| IC50 (HTT CJ mRNA) | IC50 (SMN2 CJ mRNA) | IC50 (Target C CJ mRNA) | SMILES | AC50 [1] | AC50 [2] |
| --- | --- | --- | --- | --- | --- |
| 100 to 1000 nM | < 100 nM | > 10000 nM | Cc1cn2cc(NC(=O)c3ccc(N4CCNC(C)C4)c4ccnnc34)cc(F)c2n1 (stereo in doubt) [Compound 146, N-[8-fluoro-2-methylimidazo[1,2-a]pyridin-6-yl]-5-[(3S)-3-methylpiperazin-1-yl]cinnoline-8-carboxamide] | 100 to 1000 nM | 100 to 1000 nM |
| 1000 to 10000 nM | < 100 nM | 1000 to 10000 nM | Cc1cn2cc(NC(=O)c3ccc(N4CCNC(C)C4)c4ccnnc34)cc(F)c2n1 (stereo in doubt) [Compound 147, N-[8-fluoro-2-methylimidazo[1,2-a]pyridin-6-yl]-5-[(3R)-3-methylpiperazin-1-yl]cinnoline-8-carboxamide] | 1000 to 10000 nM | 1000 to 10000 nM |
| 1000 to 10000 nM | < 100 nM | 1000 to 10000 nM | Cc1cn2cc(NC(=O)c3ccc(N4CCN(C)C(C)C4)c4ccnnc34)cc(F)c2n1 (stereo in doubt) [Compound 149, 5-[(3S)-3,4-dimethylpiperazin-1-yl]-N-[8-fluoro-2-methylimidazo[1,2-a]pyridin-6-yl]cinnoline-8-carboxamide] | 1000 to 10000 nM | 1000 to 10000 nM |
| 1000 to 10000 nM | < 100 nM | 1000 to 10000 nM | Cc1cn2cc(NC(=O)c3ccc(N4CCN(C)C(C)C4)c4ccnnc34)cc(F)c2n1 (stereo in doubt) [Compound 150, 5-[(3R)-3,4-dimethylpiperazin-1-yl]-N-[8-fluoro-2-methylimidazo[1,2-a]pyridin-6-yl]cinnoline-8-carboxamide] | 1000 to 10000 nM | 1000 to 10000 nM |
| 1000 to 10000 nM | < 100 nM | > 10000 nM | CCC1CN(c2ccc(C(=O)Nc3cc(F)c4nc(C)cn4c3)c3nnccc23)CCN1 (stereo in doubt) [Compound 151, 5-[(3S)-3-ethylpiperazin-1-yl]-N-[8-fluoro-2-methylimidazo[1,2-a]pyridin-6-yl]cinnoline-8-carboxamide] | 1000 to 10000 nM | 1000 to 10000 nM |
| 1000 to 10000 nM | < 100 nM | > 10000 nM | CCC1CN(c2ccc(C(=O)Nc3cc(F)c4nc(C)cn4c3)c3nnccc23)CCN1 (stereo in doubt) [Compound 152, 5-[(3R)-3-ethylpiperazin-1-yl]-N-[8-fluoro-2-methylimidazo[1,2-a]pyridin-6-yl]cinnoline-8-carboxamide] | 1000 to 10000 nM | 1000 to 10000 nM |
| 100 to 1000 nM | < 100 nM | 1000 to 10000 nM | Cc1cn2cc(NC(=O)c3ccc(N4CCN5CCCC5C4)c4ccnnc34)cc(F)c2n1 (stereo in doubt) [Compound 153, 5-[(8aS)-hexahydro-1H-pyrrolo[1,2-a]pyrazin-2-yl]-N-[8-fluoro-2-methylimidazo[1,2-a]pyridin-6-yl]cinnoline-8-carboxamide] | 100 to 1000 nM | 100 to 1000 nM |
| 1000 to 10000 nM | < 100 nM | 100 to 1000 nM | Cc1cn2cc(NC(=O)c3ccc(N4CCN5CCCC5C4)c4ccnnc34)cc(F)c2n1 (stereo in doubt) [Compound 154, 5-[(8aR)-hexahydro-1H-pyrrolo[1,2-a]pyrazin-2-yl]-N-[8-fluoro-2-methylimidazo[1,2-a]pyridin-6-yl]cinnoline-8-carboxamide] | 1000 to 10000 nM | 1000 to 10000 nM |
| 100 to 1000 nM | 100 to 1000 nM | 100 to 1000 nM | Cc1cn2nc(NC(=O)c3ccc(N4CCNCC4)c4ccnnc34)cc(C)c2n1 [Compound 100, N-[2,8-dimethylimidazo[1,2-b]pyridazin-6-yl]-5-(piperazin-1-yl)cinnoline-8-carboxamide] | 100 to 1000 nM | 100 to 1000 nM |
| 100 to 1000 nM | < 100 nM | 1000 to 10000 nM | Cc1cn2cc(NC(=O)c3ccc(N4CCNCC4)c4ccnnc34)cc(F)c2n1 [Compound 101, N-[8-fluoro-2-methylimidazo[1,2-a]pyridin-6-yl]-5-(piperazin-1-yl) cinnoline-8-carboxamide] | 100 to 1000 nM | 100 to 1000 nM |
| 100 to 1000 nM | 1000 to 10000 nM | 1000 to 10000 nM | Cc1cn2cc(NC(=O)c3ccc(C4CCNCC4)c4ccnnc34)cc(F)c2n1 [Compound 103, N-[8-fluoro-2-methylimidazo[1,2-a]pyridin-6-yl]-5-(piperidin-4-yl) cinnoline-8-carboxamide] | 100 to 1000 nM | 1000 to 10000 nM |
| 1000 to 10000 nM | < 100 nM | 100 to 1000 nM | Cc1cn2cc(NC(=O)c3ccc(N4CCNCC4)c4nccnc34)cc(F)c2n1 [Compound 111, N-[8-fluoro-2-methylimidazo[1,2-a]pyridin-6-yl]-8-(piperazin-1-yl) quinoxaline-5-carboxamide] | 1000 to 10000 nM | 1000 to 10000 nM |
| 1000 to 10000 nM | < 100 nM | 100 to 1000 nM | Cc1cn2cc(NC(=O)c3ccc(N4CCNCC4)c4cncnc34)cc(F)c2n1 [Compound 112, N-[8-fluoro-2-methylimidazo[1,2-a]pyridin-6-yl]-5-(piperazin-1-yl)quinazoline-8-carboxamide] | 1000 to 10000 nM | 1000 to 10000 nM |
| 1000 to 10000 nM | 100 to 1000 nM | 1000 to 10000 nM | Cc1cn2nc(NC(=O)c3ccc(C4CCNCC4)c4ccnnc34)cc(C)c2n1 [Compound 113, N-[2,8-dimethylimidazo[1,2-b]pyridazin-6-yl]-5-(piperidin-4-yl) cinnoline-8-carboxamide] | 1000 to 10000 nM | 1000 to 10000 nM |
| > 10000 nM | > 10000 nM |  | Cc1cn2cc(-c3ccc(N4CCNCC4)c4ccc(O)nc34)cc(F)c2n1 [Compound 144, 8-[8-fluoro-2-methylimidazo[1,2-a]pyridin-6-yl]-5-(piperazin-1-yl)quinolin-2-ol] | > 10000 nM | > 10000 nM |

| SMILES | IC50 (HTT CJ mRNA) | IC50 (SMN2 CJ mRNA) | IC50 (Target C CJ mRNA) | AC50 [1] | AC50 [2] |
| --- | --- | --- | --- | --- | --- |
| Cc1cn2cc(NC(=O)c3ccc(N4C[C@H]5CC[C@@H](C4)N5)c4ccnnc34)cc(F)c2n1 [Compound 108] | 1000 to 10000 nM | < 100 nM | 100 to 1000 nM | 1000 to 10000 nM | 1000 to 10000 nM |
